The target of assay [1] is T1, Alpha-1A adrenergic receptor (Homo sapiens, UniProt P35348).
T1 sequence (P35348 whole entry): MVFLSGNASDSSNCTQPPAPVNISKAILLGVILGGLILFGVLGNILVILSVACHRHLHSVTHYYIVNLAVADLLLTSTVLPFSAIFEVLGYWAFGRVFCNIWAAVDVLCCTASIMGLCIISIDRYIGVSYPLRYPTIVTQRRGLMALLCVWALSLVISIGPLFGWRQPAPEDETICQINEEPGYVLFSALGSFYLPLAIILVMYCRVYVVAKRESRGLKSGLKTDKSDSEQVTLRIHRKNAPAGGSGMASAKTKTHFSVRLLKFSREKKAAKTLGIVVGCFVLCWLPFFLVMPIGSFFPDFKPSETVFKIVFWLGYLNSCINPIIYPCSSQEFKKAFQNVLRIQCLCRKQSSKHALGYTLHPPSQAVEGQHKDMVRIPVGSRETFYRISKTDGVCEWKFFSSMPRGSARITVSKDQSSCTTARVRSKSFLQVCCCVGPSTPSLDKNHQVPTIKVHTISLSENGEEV
It counts as functional, cell-based.

The next assay addresses Vasopressin V1a receptor (Homo sapiens, UniProt P37288).
Assay [2] concerns the target T2, Gastrin/cholecystokinin type B receptor (Homo sapiens, UniProt P32239).
T2 sequence (P32239 whole entry): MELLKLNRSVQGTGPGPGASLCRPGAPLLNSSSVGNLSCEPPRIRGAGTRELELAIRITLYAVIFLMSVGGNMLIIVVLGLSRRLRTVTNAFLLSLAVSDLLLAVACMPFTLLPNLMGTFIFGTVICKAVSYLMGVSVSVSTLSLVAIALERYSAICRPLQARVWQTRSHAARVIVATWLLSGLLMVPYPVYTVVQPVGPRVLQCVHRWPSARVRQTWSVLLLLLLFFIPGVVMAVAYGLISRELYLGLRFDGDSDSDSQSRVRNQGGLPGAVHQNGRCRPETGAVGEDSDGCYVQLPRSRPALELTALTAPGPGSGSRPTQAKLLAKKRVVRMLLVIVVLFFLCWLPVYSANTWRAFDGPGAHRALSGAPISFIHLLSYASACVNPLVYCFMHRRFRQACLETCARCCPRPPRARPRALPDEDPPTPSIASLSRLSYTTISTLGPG

In assay [3] the target is T3, Muscarinic acetylcholine receptor M1 (Homo sapiens, UniProt P11229).
T3 sequence (P11229 whole entry): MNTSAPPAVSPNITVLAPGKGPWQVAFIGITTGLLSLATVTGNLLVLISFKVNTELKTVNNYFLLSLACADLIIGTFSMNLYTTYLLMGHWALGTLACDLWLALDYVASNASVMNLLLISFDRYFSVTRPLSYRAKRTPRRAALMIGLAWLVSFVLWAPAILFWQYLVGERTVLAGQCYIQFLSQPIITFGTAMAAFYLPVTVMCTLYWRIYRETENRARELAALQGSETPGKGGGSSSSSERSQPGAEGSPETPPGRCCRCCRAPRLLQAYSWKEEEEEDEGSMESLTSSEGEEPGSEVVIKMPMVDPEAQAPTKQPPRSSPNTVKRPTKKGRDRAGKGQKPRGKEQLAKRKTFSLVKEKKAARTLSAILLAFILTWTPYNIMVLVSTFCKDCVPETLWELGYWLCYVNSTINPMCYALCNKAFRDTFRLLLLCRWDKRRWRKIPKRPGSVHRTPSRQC
The class given is functional.

The target of assay [4] is T4, Cannabinoid receptor 1 (Homo sapiens, UniProt P21554). It counts as functional, cell-based.
For assay [5], the target named is T4, Cannabinoid receptor 1.
Assay [6] has as its target Gamma-aminobutyric acid receptor subunit alpha-1 (Rattus norvegicus, UniProt P62813).
Assay [7] concerns the target 5-hydroxytryptamine receptor 2A (Homo sapiens, UniProt P28223). The class given is functional, cell-based.
Assay [8] addresses T5, Amine oxidase [flavin-containing] A (Homo sapiens, UniProt P21397).
T5 sequence (P21397 whole entry): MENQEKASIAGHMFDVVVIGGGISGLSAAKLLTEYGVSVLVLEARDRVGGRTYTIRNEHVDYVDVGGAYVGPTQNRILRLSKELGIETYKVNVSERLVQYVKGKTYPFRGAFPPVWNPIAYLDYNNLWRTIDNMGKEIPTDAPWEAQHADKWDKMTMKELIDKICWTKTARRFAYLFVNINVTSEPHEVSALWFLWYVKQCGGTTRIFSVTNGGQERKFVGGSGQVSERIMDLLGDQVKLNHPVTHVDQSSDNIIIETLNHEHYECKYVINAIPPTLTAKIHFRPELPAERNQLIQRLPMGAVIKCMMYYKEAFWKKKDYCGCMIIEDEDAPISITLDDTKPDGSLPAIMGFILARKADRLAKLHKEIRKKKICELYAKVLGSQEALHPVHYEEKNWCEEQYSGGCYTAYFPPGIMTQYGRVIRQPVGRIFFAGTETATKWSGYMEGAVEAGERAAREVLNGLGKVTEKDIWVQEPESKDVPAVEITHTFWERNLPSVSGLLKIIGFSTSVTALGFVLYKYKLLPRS
The class given is functional.

The next assay addresses Mu-type opioid receptor (Homo sapiens, UniProt P35372).
In assay [9] the target is 3',5'-cyclic-AMP phosphodiesterase 4A (Homo sapiens, UniProt P27815). It counts as functional.
Assay [10] has as its target Sodium-dependent dopamine transporter (Homo sapiens, UniProt Q01959).
For a further assay, the target named is T6, Thromboxane A2 receptor (Homo sapiens, UniProt P21731).
T6 sequence (P21731 whole entry): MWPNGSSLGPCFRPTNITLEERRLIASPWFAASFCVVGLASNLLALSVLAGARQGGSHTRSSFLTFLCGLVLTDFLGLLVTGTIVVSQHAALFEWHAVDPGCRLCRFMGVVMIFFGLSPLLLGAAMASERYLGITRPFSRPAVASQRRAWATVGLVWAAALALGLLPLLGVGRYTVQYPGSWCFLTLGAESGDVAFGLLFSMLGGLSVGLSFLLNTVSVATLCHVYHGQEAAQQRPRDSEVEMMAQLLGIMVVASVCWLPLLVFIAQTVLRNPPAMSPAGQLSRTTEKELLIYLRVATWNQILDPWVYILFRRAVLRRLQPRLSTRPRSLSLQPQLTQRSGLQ
It counts as functional, cell-based.

A value given as a limit tells only on which side of the number the result lay.

The AC50 is the midpoint of the concentration-response curve, whichever way the signal moves. Low values mean activity at low concentration, high ones activity only at high concentration.
Note: assay procedure not described here.

Gamma-aminobutyric acid receptor subunit alpha-1, sequence (P62813 whole entry): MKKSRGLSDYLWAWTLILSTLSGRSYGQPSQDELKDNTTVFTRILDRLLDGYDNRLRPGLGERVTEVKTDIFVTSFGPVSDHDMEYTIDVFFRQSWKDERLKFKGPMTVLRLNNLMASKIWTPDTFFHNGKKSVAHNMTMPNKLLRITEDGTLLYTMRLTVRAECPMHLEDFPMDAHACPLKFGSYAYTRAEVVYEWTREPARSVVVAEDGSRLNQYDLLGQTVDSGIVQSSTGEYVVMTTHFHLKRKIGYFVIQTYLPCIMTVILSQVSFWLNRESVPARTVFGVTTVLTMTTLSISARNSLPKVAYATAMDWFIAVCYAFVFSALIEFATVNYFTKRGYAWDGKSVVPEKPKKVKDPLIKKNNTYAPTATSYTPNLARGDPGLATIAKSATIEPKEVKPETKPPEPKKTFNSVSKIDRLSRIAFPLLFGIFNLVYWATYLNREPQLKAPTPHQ
Vasopressin V1a receptor, sequence (P37288 whole entry): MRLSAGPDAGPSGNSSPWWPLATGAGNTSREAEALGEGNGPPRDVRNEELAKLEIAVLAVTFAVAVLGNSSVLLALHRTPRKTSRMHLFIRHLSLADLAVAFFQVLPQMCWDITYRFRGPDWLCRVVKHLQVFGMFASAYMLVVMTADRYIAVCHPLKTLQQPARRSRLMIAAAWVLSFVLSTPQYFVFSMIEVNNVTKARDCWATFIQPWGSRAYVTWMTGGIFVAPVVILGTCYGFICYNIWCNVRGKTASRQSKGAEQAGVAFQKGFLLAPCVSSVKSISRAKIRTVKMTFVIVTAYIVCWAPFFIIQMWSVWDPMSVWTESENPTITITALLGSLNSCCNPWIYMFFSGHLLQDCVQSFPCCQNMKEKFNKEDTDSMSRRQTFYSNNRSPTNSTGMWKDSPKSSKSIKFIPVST
Mu-type opioid receptor, sequence (P35372 whole entry): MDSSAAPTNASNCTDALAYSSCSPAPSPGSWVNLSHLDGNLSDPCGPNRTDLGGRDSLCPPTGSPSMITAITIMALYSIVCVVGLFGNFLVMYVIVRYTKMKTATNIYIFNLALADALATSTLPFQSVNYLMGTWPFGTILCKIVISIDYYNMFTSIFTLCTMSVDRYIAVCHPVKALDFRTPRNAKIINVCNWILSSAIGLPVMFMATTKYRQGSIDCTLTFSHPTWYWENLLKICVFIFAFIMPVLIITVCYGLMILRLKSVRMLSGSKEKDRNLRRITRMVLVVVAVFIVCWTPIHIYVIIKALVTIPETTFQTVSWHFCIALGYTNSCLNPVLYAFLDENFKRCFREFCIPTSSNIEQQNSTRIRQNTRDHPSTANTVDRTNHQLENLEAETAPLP
5-hydroxytryptamine receptor 2A, sequence (P28223 whole entry): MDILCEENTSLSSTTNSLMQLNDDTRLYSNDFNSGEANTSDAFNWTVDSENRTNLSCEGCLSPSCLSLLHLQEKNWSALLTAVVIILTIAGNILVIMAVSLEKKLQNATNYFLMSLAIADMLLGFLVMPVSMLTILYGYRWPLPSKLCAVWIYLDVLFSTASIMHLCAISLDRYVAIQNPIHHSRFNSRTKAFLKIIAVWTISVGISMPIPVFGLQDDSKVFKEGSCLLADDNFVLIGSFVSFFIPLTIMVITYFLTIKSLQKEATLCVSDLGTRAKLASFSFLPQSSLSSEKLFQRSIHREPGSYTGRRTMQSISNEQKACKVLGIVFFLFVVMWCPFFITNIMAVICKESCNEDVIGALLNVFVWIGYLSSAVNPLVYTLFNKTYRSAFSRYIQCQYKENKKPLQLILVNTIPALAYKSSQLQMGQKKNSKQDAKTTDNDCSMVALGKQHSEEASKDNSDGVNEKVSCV
Sodium-dependent dopamine transporter, sequence (Q01959 whole entry): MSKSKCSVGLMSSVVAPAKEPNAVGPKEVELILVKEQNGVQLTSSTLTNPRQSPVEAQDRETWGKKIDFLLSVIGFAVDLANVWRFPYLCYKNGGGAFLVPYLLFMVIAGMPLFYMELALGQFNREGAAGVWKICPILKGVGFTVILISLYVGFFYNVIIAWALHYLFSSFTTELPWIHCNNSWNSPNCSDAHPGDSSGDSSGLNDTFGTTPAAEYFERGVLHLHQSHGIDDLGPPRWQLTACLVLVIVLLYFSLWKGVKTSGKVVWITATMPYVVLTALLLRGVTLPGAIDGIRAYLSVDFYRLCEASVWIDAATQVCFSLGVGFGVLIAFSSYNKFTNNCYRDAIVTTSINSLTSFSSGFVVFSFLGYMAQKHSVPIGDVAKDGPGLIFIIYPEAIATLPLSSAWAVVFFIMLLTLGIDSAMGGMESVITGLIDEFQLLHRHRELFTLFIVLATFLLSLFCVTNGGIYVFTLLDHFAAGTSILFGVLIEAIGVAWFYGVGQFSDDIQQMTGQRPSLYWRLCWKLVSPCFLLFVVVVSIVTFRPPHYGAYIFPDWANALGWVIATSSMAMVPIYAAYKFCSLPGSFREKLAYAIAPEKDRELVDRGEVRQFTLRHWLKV
3',5'-cyclic-AMP phosphodiesterase 4A, sequence (P27815 whole entry): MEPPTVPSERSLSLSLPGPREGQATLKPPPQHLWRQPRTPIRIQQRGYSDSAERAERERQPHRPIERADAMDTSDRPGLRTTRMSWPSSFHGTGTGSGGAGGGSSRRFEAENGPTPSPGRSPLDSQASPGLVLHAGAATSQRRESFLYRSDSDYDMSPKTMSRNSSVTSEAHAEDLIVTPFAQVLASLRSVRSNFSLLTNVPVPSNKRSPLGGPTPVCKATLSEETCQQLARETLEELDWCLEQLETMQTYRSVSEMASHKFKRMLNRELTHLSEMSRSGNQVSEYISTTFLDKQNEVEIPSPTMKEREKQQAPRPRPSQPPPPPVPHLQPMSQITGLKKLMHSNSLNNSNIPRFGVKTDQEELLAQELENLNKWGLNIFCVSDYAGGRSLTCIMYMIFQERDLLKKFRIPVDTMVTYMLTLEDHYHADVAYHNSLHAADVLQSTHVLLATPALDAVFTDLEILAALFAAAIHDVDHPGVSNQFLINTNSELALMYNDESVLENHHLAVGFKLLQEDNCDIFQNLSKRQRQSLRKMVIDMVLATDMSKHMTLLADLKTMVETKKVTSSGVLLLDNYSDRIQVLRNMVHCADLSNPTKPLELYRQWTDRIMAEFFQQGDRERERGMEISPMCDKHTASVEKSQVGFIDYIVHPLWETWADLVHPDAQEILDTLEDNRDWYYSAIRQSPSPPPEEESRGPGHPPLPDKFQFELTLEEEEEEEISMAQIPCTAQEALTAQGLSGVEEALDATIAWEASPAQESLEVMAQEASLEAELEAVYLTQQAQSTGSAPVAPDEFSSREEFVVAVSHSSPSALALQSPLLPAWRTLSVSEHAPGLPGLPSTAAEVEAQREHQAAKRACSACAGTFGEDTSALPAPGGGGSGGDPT
T4 sequence (P21554 whole entry): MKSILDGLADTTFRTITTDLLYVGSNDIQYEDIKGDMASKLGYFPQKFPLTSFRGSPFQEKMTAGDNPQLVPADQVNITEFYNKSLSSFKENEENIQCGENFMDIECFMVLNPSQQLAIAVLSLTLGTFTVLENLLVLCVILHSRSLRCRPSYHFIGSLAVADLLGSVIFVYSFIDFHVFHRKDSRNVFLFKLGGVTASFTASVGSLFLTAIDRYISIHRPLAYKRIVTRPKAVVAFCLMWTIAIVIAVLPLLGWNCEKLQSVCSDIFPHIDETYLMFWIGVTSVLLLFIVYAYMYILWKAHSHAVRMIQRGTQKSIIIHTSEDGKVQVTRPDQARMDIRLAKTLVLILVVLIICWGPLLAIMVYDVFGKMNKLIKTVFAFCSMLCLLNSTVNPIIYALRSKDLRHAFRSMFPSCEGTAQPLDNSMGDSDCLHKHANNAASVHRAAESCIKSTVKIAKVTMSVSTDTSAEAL

As to `CN(CCOc1ccc(NS(C)(=O)=O)cc1)CCc1ccc(NS(C)(=O)=O)cc1` [DOFETILIDE], the AC50 in assay [1] is greater than 30 µM; on Vasopressin V1a receptor, greater than 10 µM; in assay [2], greater than 30 µM; in [3] it was greater than 10 µM; at Cannabinoid receptor 1 [4] it was greater than 30 µM; at Cannabinoid receptor 1 [5] it was greater than 10 µM. In addition, the AC50 in assay [6] was greater than 10 µM; in assay [7], greater than 30 µM; in assay [8], greater than 30 µM; at Mu-type opioid receptor, greater than 30 µM; in [9], greater than 30 µM; in assay [10], greater than 30 µM. At Thromboxane A2 receptor, this compound showed an AC50 greater than 30 µM.

Consider `COc1cc2c(cc1OC)C(=O)C(CC1CCN(Cc3ccccc3)CC1)C2` (stereo not drawn) [DONEPEZIL], for which the AC50 is greater than 30 µM on Vasopressin V1a receptor; greater than 30 µM in [2]; 8.2 µM in assay [3]; greater than 30 µM at Cannabinoid receptor 1 [4]; greater than 10 µM at Cannabinoid receptor 1 [5]; greater than 10 µM in assay [6]. Besides, the AC50 is greater than 30 µM in [7]; greater than 30 µM on Mu-type opioid receptor; greater than 30 µM in [9]; 9.78 µM in assay [10]; greater than 30 µM on Thromboxane A2 receptor.

On to `COC(=O)[C@@H]1CC2=CC(=O)CC[C@]2(C)[C@@]23O[C@@H]2C[C@@]2(C)[C@@H](CC[C@@]24CCC(=O)O4)[C@H]13` [EPLERENONE], for which the AC50 is greater than 30 µM in assay [1]; greater than 30 µM on Vasopressin V1a receptor; greater than 30 µM in [2]; greater than 30 µM in assay [3]; greater than 30 µM at Cannabinoid receptor 1 [4]; greater than 10 µM at Cannabinoid receptor 1 [5]. The AC50 in [6] is greater than 10 µM; in [7], greater than 30 µM.

`CC(C(=O)O)c1ccc(N2CC=CC2)c(Cl)c1` (stereo not drawn) [PIRPROFEN]: the AC50 in [1] was greater than 30 µM; at Vasopressin V1a receptor, greater than 10 µM; in assay [2], greater than 30 µM; in assay [3], greater than 10 µM; at Cannabinoid receptor 1 [4], greater than 30 µM; on Cannabinoid receptor 1 [5] it was greater than 10 µM. Besides, the AC50 was greater than 10 µM in [6]; greater than 30 µM in assay [7]; greater than 30 µM in assay [8]; greater than 30 µM at Mu-type opioid receptor; greater than 30 µM in assay [9]; greater than 30 µM in [10]. The same compound came in with an AC50 on Thromboxane A2 receptor greater than 30 µM.

As to `O=C(CCCCCCC(=O)Nc1ccccc1)NO` [VORINOSTAT], the AC50 is greater than 30 µM in [1]; greater than 30 µM at Vasopressin V1a receptor; greater than 30 µM in [2]; greater than 30 µM in assay [3]; greater than 30 µM at Cannabinoid receptor 1 [4]; greater than 10 µM on Cannabinoid receptor 1 [5]. Further, the AC50 was greater than 10 µM in [6] and greater than 30 µM in [7].

Source of the values: ChEMBL document CHEMBL5291721, “A preclinical secondary pharmacology resource illuminates target-adverse drug reaction associations of marketed drugs” (Nat Commun, 2023).
